Measurements taken from ChEMBL document CHEMBL4742390, “Derivatives of quinolines as inhibitors of dyrk1a and/or dyrk1b kinases” (2019).

Legend:
[1] = molecular target: Dual specificity tyrosine-phosphorylation-regulated kinase 1A (Homo sapiens, UniProt Q13627); test: Inhibition of N-terminal GST tagged human DYRK1A expressed in Sf21 cells incubated for 30 mins by ADP-Glo assay
[2] = molecular target: Dual specificity tyrosine-phosphorylation-regulated kinase 1B (Homo sapiens, UniProt Q9Y463); test: Inhibition of N-terminal GST tagged human DYRK1B expressed in Sf21 cells incubated for 60 mins by ADP-Glo assay
Sequence of Dual specificity tyrosine-phosphorylation-regulated kinase 1B (Q9Y463 whole entry): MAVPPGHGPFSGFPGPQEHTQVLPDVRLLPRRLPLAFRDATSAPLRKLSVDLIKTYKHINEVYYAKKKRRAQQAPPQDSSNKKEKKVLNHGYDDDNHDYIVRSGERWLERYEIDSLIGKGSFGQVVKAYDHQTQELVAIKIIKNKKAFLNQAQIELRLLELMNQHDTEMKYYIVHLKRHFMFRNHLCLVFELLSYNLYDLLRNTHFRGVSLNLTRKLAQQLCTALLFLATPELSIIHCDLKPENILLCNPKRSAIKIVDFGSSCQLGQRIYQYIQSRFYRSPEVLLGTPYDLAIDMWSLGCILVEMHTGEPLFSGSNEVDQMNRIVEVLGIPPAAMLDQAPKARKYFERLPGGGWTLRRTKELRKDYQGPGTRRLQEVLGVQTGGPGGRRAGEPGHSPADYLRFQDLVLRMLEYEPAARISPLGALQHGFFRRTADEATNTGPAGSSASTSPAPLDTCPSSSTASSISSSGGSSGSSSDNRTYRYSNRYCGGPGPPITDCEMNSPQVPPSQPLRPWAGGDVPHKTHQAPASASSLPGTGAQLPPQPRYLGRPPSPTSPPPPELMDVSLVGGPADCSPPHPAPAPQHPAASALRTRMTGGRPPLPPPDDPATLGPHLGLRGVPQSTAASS

SMILES	IC50 [1] [nM]	IC50 [2] [nM]	IC50 ([2]; sf21) [nM]	IC50 ([1]; sf21) [nM]
C=CCN(C)C(=O)c1cnc2[nH]cc(-c3cc(OC)c4ncccc4c3)c2c1	≥ 100	≥ 100		
c1cnc2ccc(-c3c[nH]c4ncccc34)cc2c1	< 10	< 10		
CNC(=O)c1cnc2[nH]cc(-c3ccc4ncc(N)c(N5CCC[C@H](N)C5)c4c3)c2c1	< 10	< 10		
Cc1cc(-c2c[nH]c3ncccc23)cc2cccnc12		≥ 100		
CC(=O)Nc1cnc2[nH]cc(-c3cc(F)c4nccc(-c5cccnc5)c4c3)c2c1	< 10	< 10		
CNC(=O)c1cnc2[nH]cc(-c3cc(F)c4nccc(-c5cccnc5)c4c3)c2c1	< 10	< 10		
CNC(=O)c1cnc2[nH]cc(-c3ccc4ncc([N+](=O)[O-])c(N5CCC[C@H](N)C5)c4c3)c2c1	< 10		10	
Cc1cc(-c2c[nH]c3ncccc23)cc2c(-c3ccccc3)ccnc12	≥ 100	≥ 100		
c1cncc(-c2ccnc3ccc(-c4c[nH]c5ncccc45)cc23)c1	< 10	< 10		
N[C@H]1CC[C@H](Nc2c(NCC3CCOCC3)cnc3ccc(-c4c[nH]c5ncc(C(=O)NCc6cccnc6)cc45)cc23)CC1	< 10		10	
N[C@@H]1CCCN(c2ccnc3c(F)cc(-c4c[nH]c5ncc(C(=O)NCc6cncnc6)cc45)cc23)C1	< 10	< 10		
C=CCN(C)C(=O)c1cnc2[nH]cc(-c3cc(F)c4ncccc4c3)c2c1	< 10	< 10		
NCCCNC(=O)c1cnc2[nH]cc(-c3cc(Cl)c4ncccc4c3)c2c1	< 10	< 10		
Clc1ccnc2ccc(-c3c[nH]c4ncccc34)cc12			10	
C=CCN(C)C(=O)c1cnc2[nH]cc(-c3ccc4nccc(Cl)c4c3)c2c1	< 10		10	
NCCCNC(=O)c1cnc2[nH]cc(-c3cc(F)c4ncccc4c3)c2c1	< 10	< 10		
Nc1cnc2ccc(-c3c[nH]c4ncc(C(=O)NCc5cccnc5)cc34)cc2c1	< 10	< 10		
FC(F)(F)Oc1cc(-c2c[nH]c3ncccc23)cc2cccnc12		≥ 100		10
CNC(=O)c1cnc2[nH]cc(-c3ccc4ncccc4c3)c2c1	< 10	< 10		
CNC(=O)c1cnc2[nH]cc(-c3cc(F)c4nccc(-c5cnccc5C)c4c3)c2c1	< 10	< 10		
CNC(=O)c1cnc2[nH]cc(-c3ccc4ncc(NCc5cccc(Cl)c5)c(N5CCOCC5)c4c3)c2c1	< 10		10	
O=C(NCc1ccccc1)c1cnc2[nH]cc(-c3cc(F)c4nccc(-c5cccnc5)c4c3)c2c1	< 10		10	

SMILES	IC50 [1] [nM]	IC50 [2] [nM]	IC50 ([2]; sf21) [nM]	IC50 ([1]; sf21) [nM]
CNC(=O)c1cnc2[nH]cc(-c3ccc4nccc(-c5cccnc5)c4c3)c2c1	< 10	< 10		
CNC(=O)c1cnc2[nH]cc(-c3ccc4nccc(N5CCOCC5)c4c3)c2c1	< 10	< 10		
N[C@H]1CC[C@H](Nc2c([N+](=O)[O-])cnc3ccc(-c4c[nH]c5ncc(C(=O)NCc6cccnc6)cc45)cc23)CC1			10	10
C=CC1CN2CCC1CC2[C@H](O)c1ccnc2ccc(-c3c[nH]c4ncccc34)cc12 (some centres not stated)	< 10	< 10		
c1cnc2[nH]cc(-c3ccc4ncc(NCc5ccoc5)cc4c3)c2c1	< 10	< 10		
CNC(=O)c1cnc2[nH]cc(-c3ccc4ncc(NCC5CCOCC5)c(N5CCOCC5)c4c3)c2c1	< 10		10	
N[C@@H]1CCCN(c2ccnc3c(F)cc(-c4c[nH]c5ncc(C(=O)NCc6cccnc6)cc45)cc23)C1	< 10	< 10		
O=C(NCc1cccnc1)c1cnc2[nH]cc(-c3ccc4ncc(NCC5CCOCC5)cc4c3)c2c1	< 10	< 10		
C=CCCCc1ccnc2ccc(-c3c[nH]c4ncc(CN(C)CC=C)cc34)cc12	< 10		10	
CC(=O)N1CCC(Nc2c(N)cnc3ccc(-c4c[nH]c5ncccc45)cc23)CC1	< 10	< 10		
CNC(=O)c1cnc2[nH]cc(-c3ccc4nccc(Cl)c4c3)c2c1	< 10	< 10		
CNC(=O)c1cnc2[nH]cc(-c3ccc4ncc(NCc5cccc(Cl)c5)c(N5CCC[C@H](N)C5)c4c3)c2c1	< 10		10	
CN1CCC(N(C)c2c([N+](=O)[O-])cnc3ccc(-c4c[nH]c5ncccc45)cc23)CC1			10	10
CNC(=O)c1cnc2[nH]cc(-c3cc(F)c4nccc(N5CCC[C@@H](N)C5)c4c3)c2c1	< 10	< 10		
C=CCN(C)C(=O)c1cnc2[nH]cc(-c3cc(F)c4nccc(-c5cccnc5)c4c3)c2c1	< 10		10	
N[C@H]1CC[C@H](Nc2ccnc3ccc(-c4c[nH]c5ncccc45)cc23)CC1		≥ 100		
N[C@H]1CCCN(c2ccnc3ccc(-c4c[nH]c5ncccc45)cc23)C1	< 10	< 10		
C=CCN(C)C(=O)c1cnc2[nH]cc(-c3cc(Cl)c4ncccc4c3)c2c1	< 10		10	
CNC(=O)c1cnc2[nH]cc(-c3cc(C)c4nccc(-c5cccnc5)c4c3)c2c1		≥ 100		
Fc1cc(-c2c[nH]c3ncccc23)cc2cccnc12	< 10	< 10		
N[C@H]1CCN(c2ccnc3ccc(-c4c[nH]c5ncccc45)cc23)C1		< 10		
Fc1cc(-c2c[nH]c3ncccc23)cc2c(-c3cccnc3)ccnc12	< 10	< 10		

SMILES	IC50 [1] [nM]	IC50 [2] [nM]	IC50 ([2]; sf21) [nM]	IC50 ([1]; sf21) [nM]
CN1CCC(Nc2c(C#N)cnc3ccc(-c4c[nH]c5ncccc45)cc23)CC1			10	
COc1cc(-c2c[nH]c3ncc(C(N)=O)cc23)cc2c(-c3cccnc3)ccnc12		≥ 100		10
Fc1cc(-c2c[nH]c3ncc(CNCc4ccccc4)cc23)cc2c(-c3cccnc3)ccnc12	< 10	< 10		
C=CCN(C)Cc1cnc2[nH]cc(-c3cc(F)c4nccc(-c5cccnc5)c4c3)c2c1	< 10		10	
O=C(NCc1ccccc1)c1cnc2[nH]cc(-c3cc(F)c4ncccc4c3)c2c1	< 10	< 10		
Cc1cc(-c2c[nH]c3ncccc23)cc2c(-c3cccnc3)ccnc12			10	
CNC(=O)c1cnc2[nH]cc(-c3cc(OC)c4ncccc4c3)c2c1		≥ 100		
CNC(=O)c1cnc2[nH]cc(-c3cc(F)c4nccc(N5CCC[C@H](N)C5)c4c3)c2c1	< 10	< 10		
CNC(=O)c1cnc2[nH]cc(-c3cc(F)c4nccc(CCc5ccccc5)c4c3)c2c1	< 10	< 10		
O=C(NCc1ccccc1)c1cnc2[nH]cc(-c3cc(Cl)c4ncccc4c3)c2c1	< 10		10	
N[C@@H]1CCCN(c2ccnc3c(F)cc(-c4c[nH]c5ncc(CNCc6ccccc6)cc45)cc23)C1	< 10	< 10		
COc1cc(-c2c[nH]c3ncccc23)cc2cccnc12		≥ 100		
Clc1cc(-c2c[nH]c3ncccc23)cc2cccnc12	< 10	< 10		
c1cnc2[nH]cc(-c3ccc4nccc(-c5ccncc5)c4c3)c2c1	< 10	< 10		
CNC(=O)c1cnc2[nH]cc(-c3ccc4ncc(NC(C)=O)c(N5CCOCC5)c4c3)c2c1	< 10	< 10		
c1ccc(-c2ccnc3ccc(-c4c[nH]c5ncccc45)cc23)cc1	< 10	< 10		
CC(=O)Nc1cnc2ccc(-c3c[nH]c4ncc(C(=O)NCc5cccnc5)cc34)cc2c1	< 10	< 10		
CNC(=O)c1cnc2[nH]cc(-c3cc(F)c4ncccc4c3)c2c1	< 10	< 10		
NCCCNC(=O)c1cnc2[nH]cc(-c3cc(F)c4nccc(-c5cccnc5)c4c3)c2c1	< 10	< 10		
NC(=O)c1cnc2[nH]cc(-c3cc(F)c4ncccc4c3)c2c1	< 10	< 10		
CN1CCC(Nc2ccnc3ccc(-c4c[nH]c5ncccc45)cc23)CC1			10	
O=C(NCc1cccnc1)c1cnc2[nH]cc(-c3cc(F)c4nccc(-c5cccnc5)c4c3)c2c1	< 10	< 10		
